According to US11370770B2, “3-arylindazoles as selective MEK4 inhibitors” (priority 2019, dated 2022):

Legend:
[1] = target: MEK6 (Homo sapiens (Human), UniProt P52564); assay: KINOMEscan binding assay; conditions: percent of control
[2] = target: MRCKA (Homo sapiens (Human), UniProt Q5VT25); assay: KINOMEscan binding assay; conditions: percent of control
[3] = target: MKK7 (Homo sapiens (Human), UniProt O14733); assay: KINOMEscan binding assay; conditions: percent of control
[4] = Dynamic light scattering (compound aggregation); format: physicochemical; conditions: 20, 5 and 1 μM in buffer with and without Triton X-100
[5] = target: PCTK3 (Homo sapiens (Human), UniProt Q07002); assay: KINOMEscan binding assay; conditions: percent of control
[6] = target: MKNK2 (Homo sapiens (Human), UniProt Q9HBH9); assay: KINOMEscan binding assay; conditions: percent of control
MKNK2, sequence (Q9HBH9 whole entry): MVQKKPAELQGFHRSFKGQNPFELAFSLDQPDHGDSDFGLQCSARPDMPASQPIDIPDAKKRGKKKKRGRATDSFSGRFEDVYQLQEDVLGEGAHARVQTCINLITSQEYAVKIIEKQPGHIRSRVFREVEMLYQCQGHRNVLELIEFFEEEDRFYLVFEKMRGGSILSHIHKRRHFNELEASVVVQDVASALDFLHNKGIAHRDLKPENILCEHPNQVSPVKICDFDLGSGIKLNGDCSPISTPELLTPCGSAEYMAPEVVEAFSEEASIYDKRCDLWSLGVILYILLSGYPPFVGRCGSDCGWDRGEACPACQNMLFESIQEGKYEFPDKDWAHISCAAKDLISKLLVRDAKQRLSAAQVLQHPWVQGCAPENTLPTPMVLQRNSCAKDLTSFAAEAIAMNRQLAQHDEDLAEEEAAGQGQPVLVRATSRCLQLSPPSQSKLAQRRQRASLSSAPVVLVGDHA

[7] = target: CSNK1A1L (Homo sapiens (Human), UniProt Q8N752); assay: KINOMEscan binding assay; conditions: percent of control
CSNK1A1L, sequence (Q8N752 whole entry): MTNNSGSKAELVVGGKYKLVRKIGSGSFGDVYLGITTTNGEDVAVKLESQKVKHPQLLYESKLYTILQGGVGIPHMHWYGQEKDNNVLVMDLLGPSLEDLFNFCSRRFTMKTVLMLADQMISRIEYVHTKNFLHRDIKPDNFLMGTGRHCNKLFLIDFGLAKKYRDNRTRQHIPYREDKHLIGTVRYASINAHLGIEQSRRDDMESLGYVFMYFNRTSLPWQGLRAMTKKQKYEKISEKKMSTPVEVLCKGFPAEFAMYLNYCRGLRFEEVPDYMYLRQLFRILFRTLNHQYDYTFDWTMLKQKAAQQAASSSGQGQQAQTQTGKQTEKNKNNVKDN

[8] = target: ICK (Homo sapiens (Human), UniProt Q9UPZ9); assay: KINOMEscan binding assay; conditions: percent of control
ICK, sequence (Q9UPZ9 whole entry, canonical isoform): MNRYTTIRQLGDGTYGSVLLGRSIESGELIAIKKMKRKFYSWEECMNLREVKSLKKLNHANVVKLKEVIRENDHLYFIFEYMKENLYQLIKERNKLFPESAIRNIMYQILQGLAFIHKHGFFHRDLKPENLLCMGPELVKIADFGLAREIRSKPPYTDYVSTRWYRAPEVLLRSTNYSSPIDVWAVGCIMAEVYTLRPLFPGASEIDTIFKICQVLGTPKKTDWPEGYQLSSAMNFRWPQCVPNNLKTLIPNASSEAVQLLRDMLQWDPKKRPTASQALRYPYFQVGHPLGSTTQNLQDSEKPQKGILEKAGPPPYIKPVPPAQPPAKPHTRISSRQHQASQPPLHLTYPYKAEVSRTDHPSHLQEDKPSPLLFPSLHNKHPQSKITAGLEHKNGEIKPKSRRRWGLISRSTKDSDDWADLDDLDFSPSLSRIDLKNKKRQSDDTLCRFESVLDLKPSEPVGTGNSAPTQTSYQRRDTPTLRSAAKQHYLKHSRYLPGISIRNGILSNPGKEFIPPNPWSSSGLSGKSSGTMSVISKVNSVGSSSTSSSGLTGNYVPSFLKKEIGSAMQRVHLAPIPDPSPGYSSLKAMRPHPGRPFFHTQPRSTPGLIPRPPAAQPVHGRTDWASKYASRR

[9] = target: T1, MEK5 (Homo sapiens (Human), UniProt Q13163); assay: MEK family profiling ADP-Glo, MEK5; format: biochemical; conditions: Erk5 substrate; 0.6 μM ATP; read-out: IC50 MEK isoform 5
T1 sequence (Q13163 whole entry, canonical isoform): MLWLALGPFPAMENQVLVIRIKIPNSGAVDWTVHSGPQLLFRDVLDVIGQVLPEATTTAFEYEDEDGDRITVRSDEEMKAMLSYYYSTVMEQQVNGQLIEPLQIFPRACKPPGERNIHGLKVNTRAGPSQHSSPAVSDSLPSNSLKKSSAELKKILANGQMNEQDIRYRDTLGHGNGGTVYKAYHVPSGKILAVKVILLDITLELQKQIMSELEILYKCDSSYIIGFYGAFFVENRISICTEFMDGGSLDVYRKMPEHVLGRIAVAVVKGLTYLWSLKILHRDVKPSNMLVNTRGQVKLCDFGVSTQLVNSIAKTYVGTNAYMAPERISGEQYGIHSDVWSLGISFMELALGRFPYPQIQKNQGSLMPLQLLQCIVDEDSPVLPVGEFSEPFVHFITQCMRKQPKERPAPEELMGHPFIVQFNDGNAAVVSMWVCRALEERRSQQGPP

[10] = target: ABL1(T3151)-non-phosphorylated (Homo sapiens (Human), UniProt P00519, T315I); assay: KINOMEscan binding assay; conditions: percent of control
[11] = target: CDK2 (Homo sapiens (Human), UniProt P24941); assay: KINOMEscan binding assay; conditions: percent of control
[12] = target: CDK9 (Homo sapiens (Human), UniProt P50750); assay: KINOMEscan binding assay; conditions: percent of control
CDK9, sequence (P50750 whole entry): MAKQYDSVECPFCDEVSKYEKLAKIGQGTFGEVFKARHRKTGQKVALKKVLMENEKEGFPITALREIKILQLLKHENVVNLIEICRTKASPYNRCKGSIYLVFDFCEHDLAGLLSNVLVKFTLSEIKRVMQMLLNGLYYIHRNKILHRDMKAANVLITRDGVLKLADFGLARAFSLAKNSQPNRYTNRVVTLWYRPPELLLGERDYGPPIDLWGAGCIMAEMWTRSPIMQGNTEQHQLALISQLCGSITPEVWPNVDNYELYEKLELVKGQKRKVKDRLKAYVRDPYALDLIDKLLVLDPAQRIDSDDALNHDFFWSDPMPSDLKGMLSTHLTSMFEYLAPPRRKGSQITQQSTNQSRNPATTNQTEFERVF

[13] = target: EPHA6 (Homo sapiens (Human), UniProt Q9UF33); assay: KINOMEscan binding assay; conditions: percent of control
EPHA6, sequence (Q9UF33 23-1036): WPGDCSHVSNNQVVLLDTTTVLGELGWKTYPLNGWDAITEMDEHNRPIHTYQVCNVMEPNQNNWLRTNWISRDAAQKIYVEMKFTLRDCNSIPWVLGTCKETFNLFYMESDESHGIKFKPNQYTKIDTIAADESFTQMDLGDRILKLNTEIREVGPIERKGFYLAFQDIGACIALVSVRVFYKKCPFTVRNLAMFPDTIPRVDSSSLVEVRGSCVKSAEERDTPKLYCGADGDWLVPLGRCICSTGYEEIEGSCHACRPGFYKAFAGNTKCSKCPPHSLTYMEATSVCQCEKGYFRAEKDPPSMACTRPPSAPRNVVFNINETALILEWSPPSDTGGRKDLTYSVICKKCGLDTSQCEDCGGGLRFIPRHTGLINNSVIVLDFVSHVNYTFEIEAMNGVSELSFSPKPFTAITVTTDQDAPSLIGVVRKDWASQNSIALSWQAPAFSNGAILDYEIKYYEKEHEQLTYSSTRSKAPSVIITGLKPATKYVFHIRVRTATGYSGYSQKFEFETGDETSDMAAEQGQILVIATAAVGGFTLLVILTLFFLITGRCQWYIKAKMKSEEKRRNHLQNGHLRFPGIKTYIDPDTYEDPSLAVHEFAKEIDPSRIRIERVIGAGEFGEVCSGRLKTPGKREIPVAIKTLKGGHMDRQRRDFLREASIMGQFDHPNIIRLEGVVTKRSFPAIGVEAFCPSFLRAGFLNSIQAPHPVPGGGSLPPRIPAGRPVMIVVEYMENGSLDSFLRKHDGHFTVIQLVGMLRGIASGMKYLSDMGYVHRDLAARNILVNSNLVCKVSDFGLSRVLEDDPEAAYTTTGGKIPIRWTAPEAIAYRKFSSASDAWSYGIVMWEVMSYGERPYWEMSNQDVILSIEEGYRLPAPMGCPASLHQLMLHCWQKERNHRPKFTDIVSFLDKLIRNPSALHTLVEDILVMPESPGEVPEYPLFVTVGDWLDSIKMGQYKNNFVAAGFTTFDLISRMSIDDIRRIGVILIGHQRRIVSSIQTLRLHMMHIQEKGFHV

[14] = target: DMPK (Homo sapiens (Human), UniProt Q09013); assay: KINOMEscan binding assay; conditions: percent of control
DMPK, sequence (Q09013 whole entry): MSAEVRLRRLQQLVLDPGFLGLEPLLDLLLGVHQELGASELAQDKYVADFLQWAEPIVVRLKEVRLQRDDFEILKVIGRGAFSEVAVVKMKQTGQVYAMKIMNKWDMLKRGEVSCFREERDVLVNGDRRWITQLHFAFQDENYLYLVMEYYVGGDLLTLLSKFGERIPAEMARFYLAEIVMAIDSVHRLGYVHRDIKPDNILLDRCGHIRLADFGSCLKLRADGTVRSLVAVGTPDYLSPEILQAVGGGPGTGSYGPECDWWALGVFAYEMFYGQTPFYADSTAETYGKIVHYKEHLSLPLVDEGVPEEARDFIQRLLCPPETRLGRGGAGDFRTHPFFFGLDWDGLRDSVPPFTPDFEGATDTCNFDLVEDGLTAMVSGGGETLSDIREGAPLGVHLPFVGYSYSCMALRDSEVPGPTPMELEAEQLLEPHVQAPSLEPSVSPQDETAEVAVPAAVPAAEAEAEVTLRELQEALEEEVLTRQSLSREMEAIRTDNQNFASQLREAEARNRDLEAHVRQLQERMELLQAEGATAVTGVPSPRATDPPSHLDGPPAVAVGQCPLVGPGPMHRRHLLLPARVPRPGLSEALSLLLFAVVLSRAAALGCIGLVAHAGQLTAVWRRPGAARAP

[15] = target: TRKC (Homo sapiens (Human), UniProt Q16288); assay: KINOMEscan binding assay; conditions: percent of control
[16] = target: MEK3 (Homo sapiens (Human), UniProt P46734); assay: MEK family profiling ADP-Glo, MEK3; format: biochemical; conditions: p38α substrate; 0.6 μM ATP; read-out: IC50 MEK isoform 3
MEK3, sequence (P46734 whole entry, canonical isoform): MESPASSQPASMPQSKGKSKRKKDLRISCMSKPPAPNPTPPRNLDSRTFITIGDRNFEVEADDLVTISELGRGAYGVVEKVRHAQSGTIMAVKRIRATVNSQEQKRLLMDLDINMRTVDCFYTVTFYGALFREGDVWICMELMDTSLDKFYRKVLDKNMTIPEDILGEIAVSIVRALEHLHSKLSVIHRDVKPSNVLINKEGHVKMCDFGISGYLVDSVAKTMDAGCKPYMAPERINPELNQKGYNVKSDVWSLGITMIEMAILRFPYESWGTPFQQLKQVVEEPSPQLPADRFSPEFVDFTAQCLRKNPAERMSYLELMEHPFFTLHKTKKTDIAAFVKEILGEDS

[17] = target: KIT(L576P) (Homo sapiens (Human), UniProt P10721, L576P); assay: KINOMEscan binding assay; conditions: percent of control
[18] = target: ALK(L1196M) (Homo sapiens (Human), UniProt Q9UM73, L1196M); assay: KINOMEscan binding assay; conditions: percent of control
[19] = target: CSML2A1 (Homo sapiens (Human), UniProt P68400); assay: KINOMEscan binding assay; conditions: percent of control
CSML2A1, sequence (P68400 whole entry): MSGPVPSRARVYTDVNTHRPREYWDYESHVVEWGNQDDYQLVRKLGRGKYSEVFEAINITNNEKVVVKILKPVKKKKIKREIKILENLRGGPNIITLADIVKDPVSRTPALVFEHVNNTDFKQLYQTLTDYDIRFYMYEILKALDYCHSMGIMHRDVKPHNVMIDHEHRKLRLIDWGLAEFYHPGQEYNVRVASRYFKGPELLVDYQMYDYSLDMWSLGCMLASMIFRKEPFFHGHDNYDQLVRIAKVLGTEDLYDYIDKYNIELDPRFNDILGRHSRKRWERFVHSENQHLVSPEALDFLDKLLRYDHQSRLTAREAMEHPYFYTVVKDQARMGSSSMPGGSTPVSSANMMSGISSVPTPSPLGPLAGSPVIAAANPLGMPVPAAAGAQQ

[20] = target: (Homo sapiens (Human), UniProt P49674); assay: KINOMEscan binding assay; conditions: CSML1E; percent of control
[21] = target: T1, MEK5; assay: KINOMEscan binding assay; conditions: percent of control
[22] = target: MEK1 (Homo sapiens (Human), UniProt Q02750); assay: KINOMEscan binding assay; conditions: percent of control
[23] = tested on: PC3M cells; assay: Scratch wound assay; format: cell-based

MEK6, sequence (P52564 whole entry): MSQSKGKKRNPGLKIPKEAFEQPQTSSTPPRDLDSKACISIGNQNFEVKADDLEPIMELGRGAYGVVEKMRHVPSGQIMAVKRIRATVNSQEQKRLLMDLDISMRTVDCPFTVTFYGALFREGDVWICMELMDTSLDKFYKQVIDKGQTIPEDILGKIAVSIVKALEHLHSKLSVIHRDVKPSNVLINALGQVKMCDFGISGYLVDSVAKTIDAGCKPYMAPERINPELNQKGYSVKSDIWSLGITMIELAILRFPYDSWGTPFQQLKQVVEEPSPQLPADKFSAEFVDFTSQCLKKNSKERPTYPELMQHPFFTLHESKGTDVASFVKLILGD

| SMILES | % Ctrl @ 10000 nM [1] [% Ctrl] | % Ctrl @ 10000 nM [2] [% Ctrl] | % Ctrl @ 10000 nM [3] [% Ctrl] | % Ctrl @ 10000 nM [5] [% Ctrl] | % Ctrl @ 10000 nM [6] [% Ctrl] | % Ctrl @ 10000 nM [7] [% Ctrl] | % Ctrl @ 10000 nM [8] [% Ctrl] | IC50 [9] [µM] | % Ctrl @ 10000 nM [10] [% Ctrl] | % Ctrl @ 10000 nM [11] [% Ctrl] | % Ctrl @ 10000 nM [12] [% Ctrl] | % Ctrl @ 10000 nM [13] [% Ctrl] | % Ctrl @ 10000 nM [14] [% Ctrl] | % Ctrl @ 10000 nM [15] [% Ctrl] | IC50 [16] [µM] | % Ctrl @ 10000 nM [17] [% Ctrl] | % Ctrl @ 10000 nM [18] [% Ctrl] | % Ctrl @ 10000 nM [19] [% Ctrl] | % Ctrl @ 10000 nM [20] [% Ctrl] | % Ctrl @ 10000 nM [21] [% Ctrl] | other results |
| --- | --- | --- | --- | --- | --- | --- | --- | --- | --- | --- | --- | --- | --- | --- | --- | --- | --- | --- | --- | --- | --- |
| O=C(O)c1cccc(-c2n[nH]c3ccccc23)c1 [Compound 6a, 3-(1H-indazol-3-yl)benzoic Acid] | 91 | 95 | 66 | 100 | 66 | 87 | 43 | > 27 | 67 | 97 | 95 | 97 | 100 | 39 | 16 | 59 | 59 | 0.75 | 88 | 88 | compound aggregates by DLS [4]: under no conditions were aggregates observed |
| O=C(O)c1ccc(-c2n[nH]c3cc(F)ccc23)cc1 [Compound 6ff, 4-(6-fluoro-2H-indazol-3-yl)benzoic Acid] | 78 | 89 | 52 | 100 | 43 | 93 | 26 | > 27 | 15 | 100 | 98 | 99 | 100 | 11 | > 27 | 11 | 61 | 0 | 100 | 44 | % Ctrl @ 10000 nM [22]: 49 % Ctrl; efficacy in wound scratch assay ([23]; 10 μM): no efficacy; efficacy in wound scratch assay ([23]; 25 μM): no efficacy; Percent Difference, DMSO vs. 10 uM inhibitor ([23]; PC3M cells, 10 μM, wound gap 0 vs 20 hrs): −1.65%; Percent Difference, DMSO vs. 25 uM inhibitor ([23]; PC3M cells, 25 μM, wound gap 0 vs 20 hrs): −0.16% |
